Measured values published in patent publication US20060148772A1, “Combination” (priority 2004, published 2006).
“Also recorded” adds a separate entry of the source.

What was measured:
[1] = tested on: ZR75.1 tumour xenografts; assay: Growth of ZR75.1 tumour xenografts in vivo; parameters: species or system Mice; conditions: ZR75.1A3 xenografts under androstenedione, p.o.
Procedure: Experimental study groups consisted of 6 animals. All tumours were grown to approximately 7 mm diameter under E2 support. Once the tumours were established, the E2 pellet was removed and replaced with androstenedione. Mice were then randomised into cages and treated as described below. Tumours were assessed twice weekly by bi-dimensional caliper measurements and volume calculated based on the volume of a sphere 4/3 […]. Data was expressed as fold change in tumour volume compared to day zero treatment for each treatment group.
Effect of 6-[4-(4-ethyl-piperazin-1-ylmethyl)-phenyl]-7H-pyrrolo[2,3-d]pyrimidin-4-yl}-(1-[phenyl-ethyl)-amine in combination with endocrine therapy was investigated in ZR75.1A3.
Groups: • (i) Vehicle (10% N-methyl-pyrollidone (NMP)/90% polyethylene glycol (PEG 300)).

[2] = tested on: BT474 (ER+, HER2++); assay: Proliferation assay, aromatase expressing BT474 clones; format: cell-based, Human; conditions: for proliferation response to increasing doses (fold change): BT474 aromatase clones, versus DCC medium alone (E2, androstenedione) or androstenedione alone (4-OH tamoxifen, letrozole); for IC50: Homo sapiens
Procedure: (§1) Human breast cancer cell lines with varying expression of ER and HER2 were engineered to express aromatase. The cell lines were MCF7 (ER+,HER2−), ZR75.1 (ER+,HER2+), BT474 (ER+, HER2++) and SKBR3 (ER−, HER2++).
(§2) Proliferation assays were carried out as follows. The target cell lines listed above were cultured in phenol red-free RPMI 1640 medium containing 10% charcoal stripped foetal calf serum and 10[…]g.ml insulin (DCC medium), with daily changes for 3 days. The cell lines were then seeded in to 12-well plates at an appropriate density (MCF7 1×10^4/well, ZR75.1 2×10^4/well, BT474 2×10^4/well, SKBR3 1×10^4/well). After 24-48 hours, the cell monolayers were treated with increasing concentrations of androstenedione or E2. […] Drug treatments were changed daily over a period of 6 days. Cell number was determined using a Z1 Coulter Counter (Beckman Coulter, UK). With the threshold set at 15 μm diameter, 75% the average 20 μm size of MCF7 cells.

[3] = tested on: MCF7 (ER+,HER2−); assay: Proliferation assay, aromatase expressing MCF7 clones; format: cell-based, Human; conditions: for proliferation response to increasing doses (fold change): MCF7 aromatase clones, versus DCC medium alone (E2, androstenedione) or androstenedione alone (4-OH tamoxifen, letrozole); for IC50: Homo sapiens
Procedure: as §1, §2

[4] = tested on: ZR75.1 (ER+,HER2+); assay: Proliferation assay, aromatase expressing ZR75.1 clones; format: cell-based, Human; conditions: for proliferation response to increasing doses (fold change): ZR75.1 aromatase clones, versus DCC medium alone (E2, androstenedione) or androstenedione alone (4-OH tamoxifen, letrozole); for IC50: Homo sapiens
Procedure: as §1, §2

[5] = tested on: ER-α-mediated transcription; assay: ERα transactivation luciferase reporter assay (pEREtkIIluc); format: cell-based, Human
Procedure: ERα transactivation was monitored using a standard reporter construct consisting of two EREs upstream of a minimal thymidine kinase reporter linked to a gene encoding luciferase (pEREtkIIluc). Activity was normalized using a second plasmid consisting of the β-galactosisdase gene downstream of the constitutively active simian virus 40 promoter (SV40)(pCH110). The target cell lines indicated, were cultured in DCC medium as described previously. Cells were then seeded into 24-well plates at a density of 7×10^5 cells/well (MCF7, ZR75.1 and SKBR3). The following day the cells were transfected by lipofectin (Life Technologies, Inc.) at a ratio of 1:2.5 (DNA:lipid) with 0.25 μg of EREIItkluc and 0.25 μg of pCH110 for 4 hours in serum-free phenol red-free RPMI 1640 medium. The cells were subsequently placed in DCC medium and left to recover overnight. BT474 cells were treated similarly but with the exception that cells were seeded at a density of 1×10^5 cells/well and monolayers were transfected by lipofectamine 2000 (Life Technologies, Inc.) at a ratio of 1:2.5 with 0.4 μg pEREtkIIluc and 0.4 μg pCH110 per well for 4 hours. […] After treatment for 24 hours, the luciferase (Promega, UK) and β-galactosidase (Galacton Star, PE Biosystems, UK) activity were measured using a luminometer.

[6] = tested on: BT474 A3; assay: Cell cycle FACS analysis (propridium iodide), BT474 A3; format: cell-based, Human; conditions: BT474 A3, androstenedione, 72 hours
Procedure: (§3) Cell lines were depleted of steroid for 3 days in DCC medium then seeded in 10 cm dishes at a density of 1×10^6 cells. After 48 hours, appropriate monolayers were pretreated with 6-[4-(4-ethyl-piperazin-1-ylmethyl)-phenyl]-7H-pyrrolo[2,3-d]pyrimidin-4-yl}-(1-[phenyl-ethyl)-amine for 1 hour in DCC medium. […] In the case of MCF7 and ZR75.1 the 6-[4-(4-ethyl-piperazin-1-ylmethyl)-phenyl]-7H-pyrrolo[2,3-d]pyrimidin-4-yl}-(1-[phenyl-ethyl)-amine concentration was increased to 5 μM. Cell were treated for 72 hours then fixed with 70% ethanol and stained with Propridium iodide. FACS analysis was used to establish the effect of the drug combinations on cell cycle.

[7] = tested on: MCF7A2 cell line; assay: Cell cycle FACS analysis (propridium iodide), MCF7A2; format: cell-based, Human; conditions: MCF7A2, androstenedione, 72 hours
Procedure: as §3

[8] = tested on: pAKT; assay: Western blot of HER2 signal transduction: AKT; format: cell-based, Human; conditions: all of the cell lines tested; 0.1, 1 and 10 μM, 8 hours
Procedure: (§4) Western Blot analysis of the effect of 6-[4-(4-ethyl-piperazin-1-ylmethyl)-phenyl]-7H-pyrrolo[2,3-d]pyrimidin-4-yl}-(1-[phenyl-ethyl)-amine on HER2 signal transduction.
(§5) Target cell lines were stripped of steroid for 3 days in DCC medium prior to seeding at a density of 1.5-2×10^6 cells per 10 cm dish. Monolayers were left to acclimatize for 24 hours prior to treatment with 0, 0.1, 1 and 10 μM 6-[4-(4-ethyl-piperazin-1-ylmethyl)-phenyl]-7H-pyrrolo[2,3-d]pyrimidin-4-yl}-(1-[phenyl-ethyl)-amine in DCC medium for 8 hours. […] The protein concentration was then quantified using BioRad protein assay kit (Bio Rad, UK). […] Filters were blocked (10 mM Tris-HCl, pH 8.3, 150 mM NaCl containing 4% milk powder) washed twice in PBS containing 0.025% Tween-20 and probed with specific antibodies (p HER2 and total HER2 (Upstate, UK), pAKT, total AKT, pMAPK and total MAPK (Cell signaling, UK) and HRP-conjugated secondary antibody (Amersham Pharmacia Biotech, UK). The antibodies were diluted 1/1000 in 1.5% bovine serum albumin, 10 mM Tris-HCl, pH 8.3, 150 mM NaCl, 0.025% Tween-20 and 0.01% sodium azide. Immuno complexes were detected using Ultra-Signal chemiluminescence kit (Pierce and Warriner, UK). Chemiluminescence was quantified using Fluro-S and analysed using Quantity One software (BioRad, UK).

[9] = tested on: SKBR3 (ER−, HER2++); assay: Proliferation assay, SKBR3 clones; format: cell-based; conditions: Homo sapiens, SK-BR-3; effect on proliferation, fold change compared to DCC medium alone
Procedure: as §1
as §2, with “cells. Cell counts were averaged for each triplicate treatment and normalised against the control sample to give the average fold-difference in cell growth.” for “cells.”

[10] = tested on: pMAPK; assay: Western blot of HER2 signal transduction: MAPK; format: cell-based, Human; conditions: 0.1, 1 and 10 μM, 8 hours
Procedure: as §4, §5

[11] = tested on: total or pHER2; assay: Western blot of HER2 signal transduction: HER2; format: cell-based, Human; conditions: 0.1, 1 and 10 μM, 8 hours
Procedure: as §4, §5

Row | SMILES | tumour growth / tumour volume (fold change compared to day zero) [1] | proliferation response to increasing doses (fold change) [2] | proliferation response to increasing doses (fold change) [3] | proliferation response to increasing doses (fold change) [4] | ER-α-mediated transcription ([5]; ER+ cell lines) | number of cells in G0/G1 [6] | number of cells in G0/G1 [7] | other results
1 | CC/C(=C(\c1ccc(O)cc1)c1ccc(OCCN(C)C)cc1)c1ccccc1 [4-OH tamoxifen] | as affective as AEE788 | dose dependent decrease in proliferation | dose dependent decrease in proliferation | dose dependent decrease in proliferation |  |  |  | 
2 | C[C@]12CC[C@@H]3c4ccc(O)cc4CC[C@H]3[C@@H]1CC[C@@H]2O [E2] |  | dose dependent increase in proliferation | dose dependent increase in proliferation | dose dependent increase in proliferation | increased ER-[…]-mediated transcription in a dose-dependent manner |  |  | 
3 | N#Cc1ccc(C(c2ccc(C#N)cc2)n2cncn2)cc1 [Letrozole, 4-[α-(4-cyanophenyl)-1-(1,2,4-triazolyl)methyl]-benzonitrile] | markedly inhibited; also recorded: more effective than 4-OH tamoxifen alone or in combination with AEE788 | dose dependent decrease in proliferation | dose dependent decrease in proliferation | dose dependent decrease in proliferation | inhibited | more effective than tamoxifen at arresting cells in G0/G1 | increase in the number of cells in G0/G1 | IC50 ([2]; BT-474, 144 h, inhibition of proliferation, aromatase expressing clones, androstenedione, 6 days): 5 nM; IC50 ([3]; MCF7, 144 h, inhibition of proliferation, aromatase expressing clones, androstenedione, 6 days): 5 nM; IC50 ([4]; ZR-75-1, 144 h, inhibition of proliferation, aromatase expressing clones, androstenedione, 6 days): 1 nM
4 | CC/C(=C(\c1ccccc1)c1ccc(OCCN(C)C)cc1)c1ccccc1 [Tamoxifen] |  |  |  |  | inhibited |  | increase in the number of cells in G0/G1 | 
5 | C[C@]12CCC(=O)C=C1CC[C@@H]1[C@@H]2CC[C@]2(C)C(=O)CC[C@@H]12 [androstenedione] |  | dose dependent increase in proliferation | dose dependent increase in proliferation | dose dependent increase in proliferation | increased ER-[…]-mediated transcription in a dose-dependent manner |  |  | 
6 | CCN1CCN(Cc2ccc(-c3cc4c(N[C@H](C)c5ccccc5)ncnc4[nH]3)cc2)CC1 [{6-[4-(4-ethyl-piperazin-1-ylmethyl)-phenyl]-7H-pyrrolo[2,3-d]pyrimidin-4-yl}-(1-[phenyl-ethyl)-amine] | modest inhibitory effect on tumour growth in the magnitude of that seen with tamoxifen |  |  |  |  | more effective than tamoxifen at arresting cells in G0/G1 | increase in the number of cells in G0/G1 | effect on pAKT [8]: decreased in a dose dependent manner; IC50 ([2]; BT-474, effect on proliferation, fold change compared to DCC medium alone): 500 nM; IC50 ([3]; MCF7, effect on proliferation, fold change compared to DCC medium alone): 5000 to 10000 nM; IC50 ([4]; ZR-75-1, effect on proliferation, fold change compared to DCC medium alone): 2000 to 5000 nM; IC50 [9]: 1500 nM; ER-α-mediated transcription ([5]; cell line BT474 (ER+, HER2++), basal and AND-induced): dose dependent decrease; ER-mediated transcription ([5]; cell lines expressing low levels of HER2 (MCF7 and ZR75.1)): little effect; effect on pMAPK ([10]; MCF7 cells): no effect on MCF7 cells; effect on pMAPK ([10]; ZR75.1, BT474 and SKBR3 cell lines): decrease of pMAPK; effect on total or pHER2 [11]: no obvious effect on total or pHER2
